Consider 22 compounds from ChEMBL document CHEMBL5291721, “A preclinical secondary pharmacology resource illuminates target-adverse drug reaction associations of marketed drugs” (Nat Commun, 2023).

Assay [1] has as its target T1, 5-hydroxytryptamine receptor 2C (Homo sapiens, UniProt P28335).
T1 sequence (P28335 whole entry): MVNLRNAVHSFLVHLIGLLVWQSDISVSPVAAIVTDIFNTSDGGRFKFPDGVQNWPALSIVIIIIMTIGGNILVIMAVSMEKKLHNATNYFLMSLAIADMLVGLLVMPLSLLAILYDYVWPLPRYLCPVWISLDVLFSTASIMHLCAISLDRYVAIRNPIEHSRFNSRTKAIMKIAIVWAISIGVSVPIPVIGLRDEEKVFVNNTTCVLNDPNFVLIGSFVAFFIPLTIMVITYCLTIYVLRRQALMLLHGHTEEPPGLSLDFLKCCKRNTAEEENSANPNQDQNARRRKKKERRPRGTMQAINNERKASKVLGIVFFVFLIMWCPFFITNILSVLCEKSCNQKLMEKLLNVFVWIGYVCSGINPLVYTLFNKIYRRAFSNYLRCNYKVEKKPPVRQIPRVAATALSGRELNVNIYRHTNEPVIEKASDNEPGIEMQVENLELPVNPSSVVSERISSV

The target in assay [2] is T2, Cholecystokinin receptor type A (Homo sapiens, UniProt P32238).
T2 sequence (P32238 whole entry): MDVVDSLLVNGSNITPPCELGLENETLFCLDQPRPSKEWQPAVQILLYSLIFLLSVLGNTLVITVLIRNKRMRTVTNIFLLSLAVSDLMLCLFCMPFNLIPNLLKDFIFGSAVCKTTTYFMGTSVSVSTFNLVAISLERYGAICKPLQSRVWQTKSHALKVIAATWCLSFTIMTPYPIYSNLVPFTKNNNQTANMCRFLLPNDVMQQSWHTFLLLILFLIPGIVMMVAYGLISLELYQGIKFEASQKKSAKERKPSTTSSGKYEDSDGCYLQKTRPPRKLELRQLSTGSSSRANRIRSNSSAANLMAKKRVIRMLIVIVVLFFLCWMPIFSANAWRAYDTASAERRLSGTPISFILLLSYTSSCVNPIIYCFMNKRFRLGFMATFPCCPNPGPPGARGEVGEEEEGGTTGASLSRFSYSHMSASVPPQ

Assay [3] concerns the target 5-hydroxytryptamine receptor 2B (Homo sapiens, UniProt P41595). The assay is classed as functional, cell-based.
Assay [4] addresses T3, 5-hydroxytryptamine receptor 1A (Homo sapiens, UniProt P08908).
T3 sequence (P08908 whole entry): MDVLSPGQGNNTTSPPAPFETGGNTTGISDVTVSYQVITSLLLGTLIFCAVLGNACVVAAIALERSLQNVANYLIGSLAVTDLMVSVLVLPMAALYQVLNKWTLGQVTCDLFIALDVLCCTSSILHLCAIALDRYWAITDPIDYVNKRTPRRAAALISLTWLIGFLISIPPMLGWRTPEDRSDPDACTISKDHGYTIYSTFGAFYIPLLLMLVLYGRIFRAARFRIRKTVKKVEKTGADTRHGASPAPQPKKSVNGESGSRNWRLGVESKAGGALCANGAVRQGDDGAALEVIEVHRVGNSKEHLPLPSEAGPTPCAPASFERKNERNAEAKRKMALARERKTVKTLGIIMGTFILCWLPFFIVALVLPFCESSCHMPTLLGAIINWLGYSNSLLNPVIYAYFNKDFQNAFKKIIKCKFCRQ
The assay is classed as functional, cell-based.

The target of assay [5] is Sodium-dependent dopamine transporter (Homo sapiens, UniProt Q01959).
Chain of Sodium-dependent dopamine transporter (Q01959 whole entry): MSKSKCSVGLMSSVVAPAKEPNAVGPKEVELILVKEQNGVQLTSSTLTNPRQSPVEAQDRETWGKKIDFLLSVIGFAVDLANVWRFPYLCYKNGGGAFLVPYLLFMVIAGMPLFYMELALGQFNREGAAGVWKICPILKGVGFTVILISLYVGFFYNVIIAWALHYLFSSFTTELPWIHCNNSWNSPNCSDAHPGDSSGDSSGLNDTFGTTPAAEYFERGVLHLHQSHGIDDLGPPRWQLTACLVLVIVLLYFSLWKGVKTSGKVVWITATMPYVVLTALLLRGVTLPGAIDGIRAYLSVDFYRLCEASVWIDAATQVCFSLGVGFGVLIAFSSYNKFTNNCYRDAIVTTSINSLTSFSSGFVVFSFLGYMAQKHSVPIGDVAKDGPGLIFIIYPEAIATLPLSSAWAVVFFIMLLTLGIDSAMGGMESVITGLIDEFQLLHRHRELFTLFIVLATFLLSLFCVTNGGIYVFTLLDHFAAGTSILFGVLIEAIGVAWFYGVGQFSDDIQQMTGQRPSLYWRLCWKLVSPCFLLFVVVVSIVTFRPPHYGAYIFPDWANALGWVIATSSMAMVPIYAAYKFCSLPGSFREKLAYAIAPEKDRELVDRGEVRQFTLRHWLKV
For the next assay, the target named is D(3) dopamine receptor (Homo sapiens, UniProt P35462).
Chain of D(3) dopamine receptor (P35462 whole entry): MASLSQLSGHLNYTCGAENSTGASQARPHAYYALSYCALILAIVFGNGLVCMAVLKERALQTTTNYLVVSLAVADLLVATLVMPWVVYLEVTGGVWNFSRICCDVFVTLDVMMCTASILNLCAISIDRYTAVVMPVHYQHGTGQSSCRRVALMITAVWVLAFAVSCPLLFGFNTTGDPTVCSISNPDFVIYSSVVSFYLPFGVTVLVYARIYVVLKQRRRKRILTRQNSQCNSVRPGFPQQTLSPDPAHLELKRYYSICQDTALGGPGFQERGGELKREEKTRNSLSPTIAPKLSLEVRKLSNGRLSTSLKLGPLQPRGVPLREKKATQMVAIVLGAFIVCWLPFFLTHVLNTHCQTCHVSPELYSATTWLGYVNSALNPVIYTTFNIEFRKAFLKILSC
Assay [6] addresses T4, Neuropeptide Y receptor type 1 (Homo sapiens, UniProt P25929).
T4 sequence (P25929 whole entry): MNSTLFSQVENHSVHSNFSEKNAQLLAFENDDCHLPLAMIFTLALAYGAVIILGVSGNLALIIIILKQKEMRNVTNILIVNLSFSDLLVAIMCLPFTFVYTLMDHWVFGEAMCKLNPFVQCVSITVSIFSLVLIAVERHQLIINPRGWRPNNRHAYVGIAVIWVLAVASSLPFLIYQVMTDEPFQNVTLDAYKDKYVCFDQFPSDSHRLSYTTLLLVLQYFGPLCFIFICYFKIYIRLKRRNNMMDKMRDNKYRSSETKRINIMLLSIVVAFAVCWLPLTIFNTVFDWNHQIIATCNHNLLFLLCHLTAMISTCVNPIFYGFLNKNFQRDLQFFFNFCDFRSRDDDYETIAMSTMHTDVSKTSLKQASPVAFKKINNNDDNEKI
Also: assay procedure not described here.

Chain of 5-hydroxytryptamine receptor 2B (P41595 whole entry): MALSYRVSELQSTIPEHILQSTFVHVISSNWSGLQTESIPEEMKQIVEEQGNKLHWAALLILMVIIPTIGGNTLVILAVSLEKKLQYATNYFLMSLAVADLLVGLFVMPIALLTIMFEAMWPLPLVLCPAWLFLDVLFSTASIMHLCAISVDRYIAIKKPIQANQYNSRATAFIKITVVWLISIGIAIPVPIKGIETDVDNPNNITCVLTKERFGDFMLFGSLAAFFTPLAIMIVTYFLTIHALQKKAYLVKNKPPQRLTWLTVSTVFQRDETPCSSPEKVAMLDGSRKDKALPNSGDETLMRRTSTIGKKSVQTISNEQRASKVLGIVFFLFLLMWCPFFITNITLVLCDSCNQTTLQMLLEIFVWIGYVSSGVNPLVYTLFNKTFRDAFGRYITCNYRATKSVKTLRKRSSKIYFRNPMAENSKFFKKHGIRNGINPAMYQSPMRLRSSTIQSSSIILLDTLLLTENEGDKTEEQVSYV

The AC50 is the concentration at which the activity in the assay is half-maximal. Low values mean greater potency, high ones weaker potency. For `C[C@]12CC[C@H](O)CC1=CC[C@@H]1[C@@H]2CC[C@]2(C)C(c3cccnc3)=CC[C@@H]12` [ABIRATERONE], the AC50 in assay [1] is greater than 30 µM; in assay [2], greater than 30 µM; in assay [3] it was greater than 10 µM; in assay [4], greater than 10 µM; in assay [5], greater than 30 µM; at D(3) dopamine receptor it was greater than 30 µM. Besides, the AC50 in assay [6] is greater than 30 µM.

On to `CC(=O)OCC[N+](C)(C)C` [ACETYLCHOLINE], for which the AC50 in assay [1] is greater than 30 µM; in assay [2], greater than 30 µM; in assay [3], greater than 10 µM; in assay [4] it was 0.15 µM; in assay [5] it was greater than 30 µM; at D(3) dopamine receptor it was greater than 30 µM. In assay [6], this compound registered an AC50 greater than 30 µM.

Turning to `O=C(Nc1nc(-c2cc(Cl)cs2)c(N2CCN(C3CCCCC3)CC2)s1)c1cnc(N2CCC(C(=O)O)CC2)c(Cl)c1` [AVATROMBOPAG], the AC50 (in assay [1]; in assay [5]; on D(3) dopamine receptor; in assay [6]) was greater than 10 µM throughout.

`CN(C)C(=O)Oc1cc(OC(=O)N(C)C)cc(C(O)CNC(C)(C)C)c1` (configuration not stated) [BAMBUTEROL]: the AC50 in assay [2], in assay [5] and in assay [6] was greater than 30 µM in each case.

For the compound `C[C@H]1C[C@H]2[C@@H]3CCC4=CC(=O)C=C[C@]4(C)[C@@]3(Cl)[C@@H](O)C[C@]2(C)[C@@]1(O)C(=O)CO` [BECLOMETHASONE], the AC50 was greater than 30 µM in assay [1]; greater than 30 µM in assay [2]; greater than 10 µM in assay [5]; greater than 10 µM on D(3) dopamine receptor; greater than 30 µM in assay [6].

As for `CO[C@@]1(NC(=O)CSCC#N)C(=O)N2C(C(=O)O)=C(CSc3nnnn3C)CS[C@@H]21` [CEFMETAZOLE], the AC50 (in assay [3]; in assay [4]; on D(3) dopamine receptor) was greater than 30 µM in each case.

On to `NS(=O)(=O)c1cc(C2(O)NC(=O)c3ccccc32)ccc1Cl` (configuration not stated) [CHLORTHALIDONE], for which the AC50 in assay [1] is greater than 30 µM; in assay [2], greater than 10 µM; in assay [3] it was greater than 10 µM; in assay [4], greater than 10 µM; in assay [5], greater than 10 µM; at D(3) dopamine receptor it was greater than 30 µM. Also, the concentration at half-maximal activity (AC50) in assay [6] is greater than 10 µM.

With `CC[C@H]1OC(=O)[C@H](C)[C@@H](O[C@H]2C[C@@](C)(OC)[C@@H](O)[C@H](C)O2)[C@H](C)[C@@H](O[C@@H]2O[C@H](C)C[C@H](N(C)C)[C@H]2O)[C@](C)(OC)C[C@@H](C)C(=O)[C@H](C)[C@@H](O)[C@]1(C)O` [CLARITHROMYCIN], the AC50 in assay [2], in assay [3], in assay [4], in assay [5] and in assay [6] was greater than 30 µM each time.

With `Oc1c(I)cc(Cl)c2cccnc12` [CLIOQUINOL], the AC50 in assay [1] is greater than 10 µM; in assay [3], greater than 30 µM; in assay [4] it was greater than 30 µM; at D(3) dopamine receptor, greater than 30 µM.

As for `C[C@@H]1CCC[C@H](C)N1NC(=O)c1ccc(Cl)c(S(N)(=O)=O)c1` [CLOPAMIDE], the AC50 (in assay [1]; in assay [2]; in assay [3]; in assay [4]; in assay [5]; on D(3) dopamine receptor) was greater than 30 µM in each case. For the same compound, the AC50 in assay [6] was greater than 30 µM.

In the case of `COc1ccc2c(c1)[C@]13CCCC[C@@H]1[C@H](C2)N(C)CC3` [DEXTROMETHORPHAN], the AC50 in assay [1] was greater than 30 µM; in assay [2], greater than 30 µM; in assay [3], greater than 10 µM; in assay [4], greater than 10 µM; in assay [5] it was greater than 10 µM; at D(3) dopamine receptor it was greater than 30 µM. In assay [6], this compound gave an AC50 greater than 30 µM.

`O=c1oc2ccccc2c(O)c1Cc1c(O)c2ccccc2oc1=O` [DICUMAROL]: the AC50 in assay [1] was greater than 30 µM; in assay [2], greater than 10 µM; in assay [3], greater than 10 µM; in assay [4], greater than 10 µM; in assay [5], greater than 10 µM; at D(3) dopamine receptor it was greater than 30 µM. Further, the AC50 in assay [6] is greater than 10 µM.

With `CCn1cc(C(=O)O)c(=O)c2cc(F)c(N3CCNCC3)nc21` [ENOXACIN], the concentration at half-maximal activity (AC50) in assay [1] is greater than 10 µM; in assay [2] it was greater than 30 µM; in assay [3], greater than 10 µM; in assay [4], greater than 10 µM; in assay [5], greater than 10 µM; on D(3) dopamine receptor it was greater than 10 µM. In assay [6], this compound came in with an AC50 greater than 30 µM.

Regarding `O=C(O)CSCC(=O)NC1CCSC1=O` (configuration not stated) [ERDOSTEINE], the AC50 (in assay [1]; in assay [2]; in assay [3]; in assay [4]; in assay [5]; on D(3) dopamine receptor) was greater than 30 µM each time. In addition, in assay [6], the AC50 was greater than 30 µM.

On to `COc1cccc(N(C)C(=S)Oc2ccc3c(c2)CCCC3)n1` [LIRANAFTATE], for which the AC50 (in assay [1]; in assay [2]; in assay [3]; in assay [4]; in assay [5]; at D(3) dopamine receptor) was greater than 30 µM throughout. Further, the AC50 in assay [6] is greater than 30 µM.

For `C#C[C@]1(O)CC[C@H]2[C@@H]3CCc4cc(OC)ccc4[C@H]3CC[C@@]21C` [MESTRANOL], the AC50 in assay [1] was greater than 30 µM; in assay [2] it was greater than 10 µM; in assay [3], greater than 10 µM; in assay [4], greater than 10 µM; in assay [5] it was 20 µM; on D(3) dopamine receptor, greater than 30 µM. The same compound yielded a concentration at half-maximal activity (AC50) in assay [6] greater than 10 µM.

Take `N=C(N)c1ccc2cc(OC(=O)c3ccc(N=C(N)N)cc3)ccc2c1` [NAFAMOSTAT]: the AC50 in assay [1] was greater than 30 µM; in assay [2], greater than 30 µM; in assay [3], 29 µM; in assay [4] it was greater than 30 µM; in assay [5] it was 2.8 µM; at D(3) dopamine receptor, 4.6 µM. This compound also yielded an AC50 in assay [6] of 10 µM.

Take `CNC(=O)Oc1ccc2c(c1)[C@]1(C)CCN(C)[C@@H]1N2C` [PHYSOSTIGMINE]: the AC50 (in assay [1]; in assay [2]; in assay [3]; in assay [4]; in assay [5]; on D(3) dopamine receptor) was greater than 30 µM throughout. Also, in assay [6], the AC50 is greater than 30 µM.

For `O=C(O)c1cc(O)c2c3nc4ccccc4oc-3cc(=O)c2n1` [PIRENOXINE], the AC50 is 2.3 µM in assay [1]; 5.1 µM in assay [2]; greater than 30 µM in assay [3]; greater than 30 µM in assay [4]; greater than 30 µM in assay [5]; 1.6 µM at D(3) dopamine receptor. Besides, the AC50 in assay [6] is greater than 30 µM.

On to `NS(=O)(=O)c1cc(C(=O)O)cc(N2CCCC2)c1Oc1ccccc1` [PIRETANIDE], for which the concentration at half-maximal activity (AC50) (in assay [1]; in assay [2]; in assay [3]; in assay [4]; in assay [5]; on D(3) dopamine receptor) was greater than 30 µM in each case. Further, the AC50 in assay [6] was greater than 30 µM.

`CNCCCC1c2ccccc2C=Cc2ccccc21` [PROTRIPTYLINE]: the AC50 in assay [2] was greater than 10 µM; in assay [3], 3.8 µM; in assay [4] it was greater than 10 µM; in assay [5], 17.8 µM; on D(3) dopamine receptor it was 0.85 µM; in assay [6] it was greater than 10 µM.

For the compound `O=C(CCCN1CCC2(CC1)C(=O)NCN2c1ccccc1)c1ccc(F)cc1` [SPIPERONE], the AC50 was 10.3 µM in assay [1], greater than 30 µM in assay [2], 7.2 µM in assay [5] and greater than 30 µM in assay [6].
